Data set [1] concerns the target T1, HIV "Reverse Transcriptase" (Human immunodeficiency virus type 1 group M subtype B, UniProt P04585).
T1 construct: purchased HT Biotechnology LTD, Cambridge, UK; host or cells: E. coli
Briefly: Inhibition of HIV reverse transcriptase, Scintillation Proximity Assay (SPA). As to conditions: RT-SPA, 60 min, 37° C.; read-out: Reverse Transcriptase Assay IC-50 (converted). Format: biochemical. Here is the method:
Investigation of the Substances for Inhibition of HIV "Reverse Transcriptase"
The activity of the reverse transcriptase (RT) was determined using a "Scintillation Proximity Assay" (SPA).
The reagent kit for the RT-SPA was obtained from Amersham/Buchler (Brunswick). The enzyme RT (from HIV cloned in E. coli) came from HT Biotechnology LTD, Cambridge, UK.
The test was carried out according to the method manual of the manufacturer Amersham--with the following modifications:
Bovine serum albumin was added to the assay buffer to a final concentration of 0.5 mg/ml.
The test was carried out in Eppendorf reaction vessels with a […] batch volume.
The RT concentrate of the manufacturer (5000 U/ml) was diluted to an activity of 15 U/ml in tris HCl buffer 20 mM; pH 7.2; 30% glycerol.
The incubation time for the batches was 60 min (37° C.).
After stopping the reaction and "development" with the bead suspension, 130 μl batches were transferred to 4.5 ml of tris HCl buffer, 10 mM; pH 7.4; 0.15 M NaCl and the tritium activity was measured in a β-counter.
For a preliminary test of the inhibitor activity, the substances were dissolved in DMSO (stock solution c=1 mg/ml) and tested in dilution in DMSO 10^-1, 10^-2, 10^-3 etc.
For the determination of IC50 values, the inhibitor stock solutions were further diluted in tris HCl buffer, 50 mM, pH 8 and tested in suitable concentrations.
From the graphic representation of RT activity versus Log Clnh., the concentration associated with a 50% enzyme inhibition was determined.
(In general: SPA uses beads or plates that emit light when radiolabelled molecules are held near them.)

In the next data set the test system is HIV. Put plainly: Testing of preparations against HIV in cell culture (giant cell formation in HIV-infected lymphocytes). In kind it is cell-based. The settings on record: 3 days, 37° C.; for MIC: Human immunodeficiency virus 1, 72 h, lowest concentration at which no giant cells occurred; for EC50: Human immunodeficiency virus 1, Lymphocyte, 72 h. Here is the method:
Testing of Preparations Against HIV Cell Culture
Complete medium additionally contains 20% fetal calf serum and 40 IU/ml of recombinant interleukin 2.
Lymphocytes isolated from fresh donor blood by means of Ficoll^R gradient centrifugation are cultured at 37° C. under 5% CO2 for 36 h in complete medium with addition of […] of phytohemagglutinin (Wellcome). After addition of 10% DMSO, the cells are frozen at a cell density of 5×10^6 and stored in liquid nitrogen. For the experiment, the cells are thawed, washed in RPMI medium and cultured in complete medium for 3-4 days.
The test preparations were dissolved in DMSO in a concentration of 16.7 mg/ml and diluted to 1 mg/ml in complete medium. 0.4 ml of medium was initially introduced into 24-well multiwell dishes. After addition of 0.1 ml of the dissolved preparation in the top row of the dish, a geometrical dilution series was produced by transfer of 0.1 ml in each case. Preparation-free controls always contained 0.4 ml of complete medium containing 0.5% DMSO. Lymphocyte cultures having a cell count of 5×10^5 cells/ml were infected by addition of 1/50 volumes of supernatant from HIV-infected lymphocyte cultures. The titer of these culture supernatants was determined by endpoint dilution with 1-5×10^6 infectious units/ml. After incubation at 37° C. for 30 min, the infected lymphocytes were removed by centrifugation and taken up again in the same volume of medium. 0.6 ml of this cell suspension in each case was added to all hollows of the test plate. The batches were incubated at 37° C. for 3 days.
The infected cell cultures were investigated under the microscope for the presence of giant cells, which indicate active virus replication in the culture. The lowest preparation concentration at which no giant cells occurred was determined as the inhibitory concentration against HIV. For the control, the supematants from the culture plates were determined for the presence of HIV antigen using an HIV antigen test according to the instructions of the manufacturer (Organon).

For data set [2] the following is noted: Hirsch, M. S. J. Infect. Dis. 157 (1988), 427-431; cited from earlier work.

These results are taken from patent publication US6114349A, “Substituted quinoline derivatives with antiviral action” (Hoechst Aktiengesellschaft, priority 1996, dated 2000).

As usually defined, the EC50 is the midpoint of the concentration-response curve. A high value points to lower potency in that assay.

≈ marks a conversion by molar mass, not a printed value.

Turning to `CC(C)OC(=O)c1c(-c2ccccc2)c(=S)[nH]c2ccc(Cl)cc12` [Compound 6], the IC50 in data set [1] was 22 nM.

In the data set on HIV, `CC(C)OC(=O)c1c(C(C)C)c(=S)[nH]c2ccccc12` [Compound 35] registered an MIC above 0.04 µg/mL and an EC50 above 0.008 µg/mL. The IC50 in data set [1] is 529 nM.

As to `C=CCOC(=O)c1c(CC)c(=S)[nH]c2ccc(Cl)cc12` [Compound 71], in the data set on HIV, the MIC was around 0.4 µg/mL (≈ 1.3 µM) and the EC50 is below 0.08 µg/mL. Also, in data set [1], the IC50 was 1 nM.

For `CCc1c(C(=O)OC2CCCCC2)c2cc(Cl)ccc2[nH]c1=S` [Compound 70], in the data set on HIV, the MIC is around 0.4 µg/mL (≈ 1.14 µM) and the EC50 was below 0.08 µg/mL. Besides, the IC50 in data set [1] was 8 nM.

With `Cc1c(C(=O)OC(C)C)c2cc(Cl)ccc2[nH]c1=O` [Compound 40], in the data set with HIV, the MIC is above 0.04 µg/mL and the EC50 amounted to 0.015 µg/mL (≈ 0.0536 µM). In addition, in data set [1], the IC50 is 608 nM.

For `CC(C)Cc1c(C(=O)OC(C)C)c2ccccc2[nH]c1=O` [Compound 16], in the data set on HIV, the MIC is above 0.04 µg/mL and the midpoint of the response, the EC50, lay at 0.05 µg/mL (≈ 0.174 µM). Also, in data set [1], the IC50 is 372 nM.

On to `CCOC(=O)c1c(CC)c(=S)[nH]c2ccc(Cl)cc12` [Compound 67], for which, in data set [1], the IC50 was 1 nM.

Consider `O=c1[nH]cnc2c1ncn2[C@H]1CC[C@@H](CO)O1` [DDI], for which the “therapeutic breadth / toxicity” value in data set [2] was “very narrow therapeutic breadth or by very severe toxicity which occurs even in the therapeutic range”.

In the data set with HIV, `CCc1c(C(=O)OC(C)C)c2cc(Cl)ccc2[nH]c1=S` [Compound 20, isopropyl 6-chloro-3-ethylquinoline-2(1H)-thione-4-carboxylate] came in with an MIC above 0.008 µg/mL and an EC50 of around 0.002 µg/mL (≈ 0.00646 µM). The IC50 in data set [1] is 8 nM.

As for `Nc1ccn([C@H]2CC[C@@H](CO)O2)c(=O)n1` [DDC], the “therapeutic breadth / toxicity” value in data set [2] is “very narrow therapeutic breadth or by very severe toxicity which occurs even in the therapeutic range”.

As to `Cc1c(C(=O)OC(C)C)c2cc(Cl)ccc2[nH]c1=S` [Compound 41], in the data set on HIV, the MIC was above 0.04 µg/mL and the EC50 was below 0.001 µg/mL.

In the data set with HIV, `CCC(CC)OC(=O)c1c(-c2ccccc2)c(=S)[nH]c2ccc(Cl)cc12` [Compound 18] had an MIC above 0.2 µg/mL and an EC50 of around 0.08 µg/mL (≈ 0.207 µM). Moreover, in data set [1], the IC50 was 29 nM.

In the data set on HIV, `CCc1c(C(=O)OC(C)C)c2ccccc2[nH]c1=S` [Compound 5] returned an MIC of 0.2 µg/mL (≈ 0.726 µM) and an EC50 of 0.005 µg/mL (≈ 0.0182 µM). Moreover, in data set [1], the IC50 is 35 nM.

As to `COC(=O)c1c(C)c(=S)[nH]c2ccc(Cl)cc12` [Compound 39], in the data set with HIV, the MIC was above 0.2 µg/mL and the EC50 was 0.03 µg/mL (≈ 0.112 µM).

In the data set with HIV, `CC(C)OC(=O)c1c(C(C)C)c(=O)[nH]c2ccccc12` [Compound 34] returned an MIC above 0.2 µg/mL and an EC50 of around 0.1 µg/mL (≈ 0.366 µM). In addition, in data set [1], the IC50 is 1520 nM.

In the data set on HIV, `CCCOC(=O)c1c(C)c(=S)[nH]c2ccc(Cl)cc12` [Compound 45] yielded an MIC below 0.2 µg/mL and an EC50 of around 0.04 µg/mL (≈ 0.135 µM). In data set [1], the IC50 is 34 nM.

Turning to `CCc1c(C(=O)OC2CCCC2)c2ccccc2[nH]c1=S` [Compound 30], in the data set with HIV, the MIC is around 0.2 µg/mL (≈ 0.664 µM) and the EC50 is around 0.04 µg/mL (≈ 0.133 µM). The IC50 in data set [1] was 147 nM.

In the data set on HIV, `CCc1c(C(=O)OC(C)C)c2cc(Cl)ccc2[nH]c1=O` [Compound 19, isopropyl 6-chloro-3-ethylquinolin-2(1H)-one-4-carboxylate] displayed an MIC of around 0.2 µg/mL (≈ 0.681 µM) and an EC50 of around 0.02 µg/mL (≈ 0.0681 µM). Also, the IC50 in data set [1] was 94 nM.

In the data set on HIV, `Cc1c(C(=O)OCC2CC2)c2cc(Cl)ccc2[nH]c1=O` [Compound 42] yielded an MIC above 0.2 µg/mL and an EC50 of around 0.1 µg/mL (≈ 0.343 µM).

In the data set with HIV, `CC(C)OC(=O)c1c(-c2ccccc2)c(=S)[nH]c2ccc(F)cc12` [Compound 15] registered an MIC above 0.04 µg/mL and an EC50 of around 0.02 µg/mL (≈ 0.0586 µM). Further, in data set [1], the IC50 is 21 nM.

For `Cc1c(C(=O)OCC2CC2)c2cc(Cl)ccc2[nH]c1=S` [Compound 43], the IC50 in data set [1] is 26 nM.

`CC(C)OC(=O)c1c(-c2ccccc2Cl)c(=S)[nH]c2ccccc12` [Compound 61] had an MIC in the data set with HIV of around 0.08 µg/mL (≈ 0.224 µM). Also, the IC50 in data set [1] is 26 nM.
